Common to all, as to assay type: functional
Assay [1] relates to Proteus mirabilis. Description: Antibacterial activity against Proteus mirabilis after 24 hr by agar cup assay.
Assay [2] has as its system Arthrobacter sp. As to the kind of experiment: Antibacterial activity against Arthrobacter sp. after 24 hr by agar cup assay.
The test system of assay [3] is Klebsiella sp. As to the kind of experiment: Antibacterial activity against Klebsiella sp. after 24 hr by agar cup assay.
Assay [4] concerns Shigella sp. Description: Antibacterial activity against Shigella sp. after 24 hr by agar cup assay.
Assay [5] concerns Escherichia coli. As to the kind of experiment: Antibacterial activity against Escherichia coli after 24 hr by agar cup assay.
Assay [6] has as its system Bacillus subtilis. Description: Antibacterial activity against Bacillus subtilis after 24 hr by agar cup assay.
Assay [7] deals with Escherichia coli. Description: Antibacterial activity against Escherichia coli.
For assay [8], the system named is Mycobacterium tuberculosis. As to the kind of experiment: Antitubercular activity against Mycobacterium tuberculosis.
Assay [9] deals with Bacillus subtilis. Description: Antibacterial activity against Bacillus subtilis.
The subject of assay [10] is Proteus vulgaris. Description: Antimicrobial activity against Proteus vulgaris.

From ChEMBL document CHEMBL3045124, “Molecular docking and in silico studies on analogues of 2-methylheptyl isonicotinate with DHDPS enzyme of Mycobacterium tuberculosis” (2013) come the findings set out here.

In brackets after ≈: the same amount, converted by molar mass.

In general, MIC refers to the smallest concentration in the dilution series that meets the test's criterion for growth inhibition. A low value points to inhibition by little substance. Consider `CCCCCC(C)COC(=O)c1ccncc1` (centres undefined) [2-METHYL HEPTYL ISONICOTINATE], for which the MIC in [1] worked out at 40 µg/mL (≈ 170 µM); in assay [2] it was 40 µg/mL (≈ 170 µM); in assay [3], 50 µg/mL (≈ 212 µM); in [4], 60 µg/mL (≈ 255 µM); in [5] it was 70 µg/mL (≈ 297 µM); in assay [6], 50 µg/mL (≈ 212 µM).

Turning to `CCCCC[C@H](C)COC(=O)c1ccncc1` [(S)-2-METHYLHEPTYL ISONICOTINATE], the MIC in assay [7] came to 20 µg/mL (≈ 85 µM); in assay [8], 14 µg/mL (≈ 59.5 µM); in assay [9], 20 µg/mL (≈ 85 µM); in [10], 14 µg/mL (≈ 59.5 µM).

`NNC(=O)c1ccncc1` [ISONIAZID]: the MIC in [1] was 200 µg/mL (≈ 1460 µM); in assay [2], 150 µg/mL (≈ 1090 µM); in assay [3], 250 µg/mL (≈ 1820 µM); in assay [4] it was 300 µg/mL (≈ 2190 µM); in [5], 2520 µg/mL (≈ 18400 µM); in assay [6], 150 µg/mL (≈ 1090 µM).

Consider `CCCCC[C@@H](C)COC(=O)c1ccncc1` [ISONICOTINIC ACID 2-METHYL-HEPTYL ESTER], for which the MIC in [7] turned out to be 16 µg/mL (≈ 68 µM); in assay [8] it was 10 µg/mL (≈ 42.5 µM); in [9], 16 µg/mL (≈ 68 µM); in assay [10] it was 6 µg/mL (≈ 25.5 µM).

As to `CCCCOC(=O)c1ccncc1` [ISONICOTINIC ACID BUTYL ESTER], the MIC in [7] was found to be 600 µg/mL (≈ 3350 µM); in assay [8] it was 280 µg/mL (≈ 1560 µM); in assay [9], 600 µg/mL (≈ 3350 µM); in assay [10], 500 µg/mL (≈ 2790 µM).

With `CCCCCCCOC(=O)c1ccncc1` [ISONICOTINIC ACID HEPTYL ESTER], the MIC in assay [7] came out at 24 µg/mL (≈ 108 µM); in [8] it was 16 µg/mL (≈ 72.3 µM); in assay [9], 24 µg/mL (≈ 108 µM); in assay [10], 16 µg/mL (≈ 72.3 µM).

With `CCCCCCOC(=O)c1ccncc1` [ISONICOTINIC ACID HEXYL ESTER], the MIC in assay [7] was determined as 50 µg/mL (≈ 241 µM); in assay [8] it was 24 µg/mL (≈ 116 µM); in assay [9], 50 µg/mL (≈ 241 µM); in assay [10], 36 µg/mL (≈ 174 µM).

As for `CCCCCCCCCCCCCCCCCCOC(=O)c1ccncc1` [ISONICOTINIC ACID OCTADECYL ESTER], the MIC worked out at 600 µg/mL (≈ 1600 µM) in assay [7], 320 µg/mL (≈ 852 µM) in assay [8], 600 µg/mL (≈ 1600 µM) in assay [9] and 560 µg/mL (≈ 1490 µM) in [10].

Take `CCCCCCCCOC(=O)c1ccncc1` [ISONICOTINIC ACID OCTYL ESTER]: the minimum inhibitory concentration (MIC) in [7] is 16 µg/mL (≈ 68 µM); in assay [8], 8 µg/mL (≈ 34 µM); in assay [9] it was 16 µg/mL (≈ 68 µM); in assay [10], 6 µg/mL (≈ 25.5 µM).

As for `CCCCCOC(=O)c1ccncc1` [ISONICOTINIC ACID PENTYL ESTER], the MIC is 20 µg/mL (≈ 103 µM) in assay [7], 10 µg/mL (≈ 51.7 µM) in [8], 20 µg/mL (≈ 103 µM) in [9] and 14 µg/mL (≈ 72.4 µM) in assay [10].
